Patent US4521417A, “Geranylgeranylacetamide compounds having a piperazine ring, salts thereof, pharmaceutical compositions containing said compounds, and method of treating ulcers in mammals” (Nihon Iyakuhin Kogyo Co., Ltd., priority 1982, dated 1985)
Where a name gives a salt, the structure may show the parent alone.

How the values were obtained:
ulcer = experiment: Pharmacological Test 1: pylorus-ligation ulcer in fasted rats, drug intraduodenal, ulcer area after 8 h; type: in vivo, STD Wistar-strain male rats; conditions: Rattus norvegicus, pylorus ligated, n=15 rats, read-out: Percent inhibition (ulcer area)
Protocol: (§1) Pharmacological tests were conducted on the above-mentioned known anti-ulcerogenic agents, the typical known anti-ulcerogenic compound of formula (A)-1 given hereinabove, and the compounds of formula (I) in accordance with this invention in order to examine their anti-ulcerogenic activities.
(§2) In these pharmacological tests, the numbers attached to the compounds of this invention correspond to the numbers of Production Examples given hereinbelow.
STD Wistar-strain male rats (body weight 170 to 200 g) were caused to fast for 72 hours, and then under ether anesthesia, were incised at the abdomen. The pylorus portion was ligated, and each of the test drugs was intraduodenally administered. The abdomen was closed and sewn. Eight hours later, the abdomen was cut open, and the stomach was taken out. The area of a generated ulcer was measured by a stereoscopic microscope, and the percent inhibition was calculated by comparison from a control to which the drug was not administered.

[1] = tested on: ulcers generated in the stomach body; experiment: Pharmacological Test 2: water-immersion stress ulcer in rats, drug oral, total ulcer length; type: in vivo, STD Wistar-strain male rats; conditions: Rattus norvegicus, 1 hour before water immersion stress at 23±1° C., 18 hours, n=10 rats, read-out: Percent inhibition (total length of ulcers)
Protocol: as §1, §2
STD Wistar-strain male rats (body weight 170 to 200 g) were caused to fast for 30 hours, and put in a wire cage. They were immersed in a constant temperature water tank kept at 23±1° C. to their emsistermun. Eighteen hours later, the animals were taken out, and incised at the abdomen. The stomach was cut open and examined microscopically. One hour before applying stress to the animals by water immersion, each of the test drugs was orally administered. The total length of ulcers generated in the stomach body was compared with that in a control, and the rate of inhibiting ulcer formation was calculated.

ulcers = experiment: Pharmacological Test 3: indomethacine-induced ulcer in rats, drug oral, total ulcer length; type: in vivo, STD Wistar male rats; conditions: Rattus norvegicus, 10 minutes before indomethacine 40 mg/kg s.c., 7 hours, n=10 rats, read-out: Percent inhibition (total length of ulcers)
Protocol: Pharmacological tests were conducted on the above-mentioned known anti-ulcerogenic agents, the typical known anti-ulcerogenic compound of formula (A)-1 given hereinabove, and the compounds of formula (I) in accordance with this invention in order to examine their anti-ulcerogenic activities. In these pharmacological tests, the numbers attached to the compounds of this invention correspond to the numbers of Production Examples given hereinbelow. STD Wistar male rats (body weight 170 to 200 g) were caused to fast for 24 hours, and indomethacine dissolved in a 5% aqueous solution of sodium hydrogen carbonate was subcutaneously administered in a dose of 40 mg/kg. Seven hours later, the animals were autopsied. Each of the test drugs was administered orally to the stomach 10 minutes before administration of indomethacine. The total length of ulcers formed was compared with that in a control, and the percent inhibition was calculated.

Compound | inhibition in vivo at 300 mg/kg (ulcer) [%] | inhibition in vivo at 300 mg/kg [1] [%] | inhibition in vivo at 300 mg/kg (ulcers) [%] | inhibition in vivo at 200 mg/kg (ulcers) [%]
CC1(C)[C@@H](OC(=O)CCC(=O)O)CC[C@]2(C)[C@H]3C(=O)C=C4[C@@H]5C[C@@](C)(C(=O)O)CC[C@]5(C)CC[C@@]4(C)[C@]3(C)CC[C@@H]12 [Carbenoxolone sodium, glycyrrhetinic acid hydrogen succinate, disodium salt, reference compound] | 60.5 | 8.6 | 63.6 | –
NC[C@H]1CC[C@H](C(=O)Oc2ccc(CCC(=O)O)cc2)CC1 [Cetraxate hydrochloride, 4-(2-carboxyethyl)-phenyl-trans-4-aminomethylcyclohexanecarboxylate hydrochloride, reference compound] | 27.8 | 31.6 | 25.3 | –
CC(C)=CCCC(C)=CCCC(C)=CCCC(=O)N1CCN(C)CC1 [Comparative compound of formula (A)-1, reference compound] | 53.3 | 45.6 | 51.2 | –
CC(C)=CCC/C(C)=C/CC/C(C)=C/CC/C(C)=C/CCC(=O)N1CCNCC1 [Compound (1), N-geranylgeranylacetyl piperazine] | 68.2 | 73.8 | – | 66
CC(C)=CCC/C(C)=C/CC/C(C)=C/CC/C(C)=C/CCC(=O)N1CCN(C)CC1 [Compound (2), N-methyl-N'-geranylgeranylacetyl piperazine] | 74.5 | 76 | – | 75.3
CCN1CCN(C(=O)CC/C=C(\C)CC/C=C(\C)CC/C=C(\C)CCC=C(C)C)CC1 [Compound (3), N-ethyl-N'-geranylgeranylacetyl piperazine] | 70.1 | 68.7 | – | 62.1
CCCN1CCN(C(=O)CC/C=C(\C)CC/C=C(\C)CC/C=C(\C)CCC=C(C)C)CC1 [Compound (4), N-n-propyl-N'-geranylgeranylacetyl piperazine] | 64.7 | 69 | – | 56.5
CC(C)=CCC/C(C)=C/CC/C(C)=C/CC/C(C)=C/CCC(=O)N1CCN(C(C)C)CC1 [Compound (5), N-isopropyl-N'-geranylgeranylacetyl piperazine] | 66.5 | 64 | – | 60
CCCCN1CCN(C(=O)CC/C=C(\C)CC/C=C(\C)CC/C=C(\C)CCC=C(C)C)CC1 [Compound (6), N-butyl-N'-geranylgeranylacetyl piperazine] | 66.5 | 60.6 | – | 55.3
CCCCCN1CCN(C(=O)CC/C=C(\C)CC/C=C(\C)CC/C=C(\C)CCC=C(C)C)CC1 [Compound (7), N-n-amyl-N'-geranylgeranylacetyl piperazine] | 67.3 | 64.6 | – | 65.3
C=CCN1CCN(C(=O)CC/C=C(\C)CC/C=C(\C)CC/C=C(\C)CCC=C(C)C)CC1 [Compound (8), N-allyl-N'-geranylgeranylacetyl piperazine] | 70.5 | 68.5 | – | 72.5
CC(C)=CCC/C(C)=C/CC/C(C)=C/CC/C(C)=C/CCC(=O)N1CCN(CC=C(C)C)CC1 [Compound (9), N-prenyl-N'-geranylgeranylacetyl piperazine] | 64 | 59 | – | 57.2
CC(C)=CCC/C(C)=C/CC/C(C)=C/CC/C(C)=C/CCC(=O)N1CCN(CCCCCl)CC1 [Compound (10), N-4-chlorobutyl-N'-geranylgeranylacetyl piperazine] | 65.3 | 67.3 | – | 70.2
CC(C)=CCC/C(C)=C/CC/C(C)=C/CC/C(C)=C/CCC(=O)N1CCN(CCCBr)CC1 [Compound (11), N-3-bromopropyl-N'-geranylgeranylacetyl piperazine] | 66.8 | 65.3 | – | 65.6
CC(C)=CCC/C(C)=C/CC/C(C)=C/CC/C(C)=C/CCC(=O)N1CCN(Cc2ccccc2)CC1 [Compound (12), N-benzyl-N'-geranylgeranylacetyl piperazine] | 64.9 | 61.1 | – | 62.1
CC(C)=CCCC(C)=CCCC(C)=CCCC(C)=CCCC(=O)N1CCNC(C)C1 (stereo not drawn) [Compound (13), methyl-N-geranylgeranylacetyl piperazine] | 77.1 | 82.8 | – | 79.2
CCC1CN(C(=O)CCC=C(C)CCC=C(C)CCC=C(C)CCC=C(C)C)CCN1 (stereo not drawn) [Compound (14)] | 71.5 | 70.2 | – | 73.5
CC(C)=CCC/C(C)=C/CC/C(C)=C/CC/C(C)=C/CCC(=O)N1C(C)CNCC1C (stereo not drawn) [Compound (15), 2,6-dimethyl-N-geranylgeranylacetyl piperazine] | 80 | 80 | – | 77.2
CC(C)=CCCC(C)=CCCC(C)=CCCC(=O)OC/C=C(\C)CCC=C(C)C [Gefarnate, geranyl farnesylacetate, reference compound] | 30 | 23.6 | 33.1 | –
